From patent US11564920B2, “5-heteroaryl-1H-pyrazol-3-amine derivative” (Sumitomo Pharma Co., Ltd., priority 2020, dated 2023)

Assays:
[1] = biological target: CHK1 (Homo sapiens (Human), UniProt O14757); assay: CHK1 inhibitory activity test (IMAP TR-FRET); type: biochemical; conditions: for inhibition at 0.0001 µM: read-out: CHK1 inhibition % at 0.1 nM; for effect of suppressing CHK1 activity (in words): compared with prexasertib
Procedure: IMAP TR-FRET Screening Express Kit (R8160) was obtained from Molecular Devices. […] FAM-PKAtide (R7255, Molecular Devices) and FAM-Phospho-PKAtide (R7304, Molecular Devices) were admixed after dilution, and calibration standard systems for phosphorylation levels from 0 to 100% were created. 5 μL of a compound dissolved in a 0.4% DMSO solution was added to a 384 well plate. A compound study group to which 5 μL of each of CHK1, CHK1tide, and ATP was added, and a standard group to which 20 μL of standard was added were created, and subjected to a kinase reaction for 3 hours at 30° C. Subsequently, 60 μL of Binding Reagent (80% Buffer A, 20% Buffer B, 1:600 Binding Reagent, 1:400 Tb-Donor) was added for a binding reaction for 2 hours at room temperature.

[2] = tested on: ES-2 cells; assay: Cell growth suppression experiment; type: cell-based; conditions: for IC50: Homo sapiens, 48 h, cultured for 2 days, read-out: IC50 (cell growth suppression, ranking); for cell growth suppression effect (in words): compared with prexasertib
Procedure: ES-2 cells were obtained from the American Type Culture Collection (ATCC). These cells were cultured at 37° C. in the presence of 5% CO2 in a 10% fetal bovine serum, […] penicillin/streptomycin containing McCoy's 5a medium.
500 cells were seeded for each well in a 384-well plate, and the evaluated compound was added so that the final concentration of DMSO would be 0.1% to culture the cells for 2 days. After completion of the culture, the cell viability rate was calculated using CellTiter-Glo® 3D Reagent (Promega, G968B).

CHK1, sequence (O14757 whole entry): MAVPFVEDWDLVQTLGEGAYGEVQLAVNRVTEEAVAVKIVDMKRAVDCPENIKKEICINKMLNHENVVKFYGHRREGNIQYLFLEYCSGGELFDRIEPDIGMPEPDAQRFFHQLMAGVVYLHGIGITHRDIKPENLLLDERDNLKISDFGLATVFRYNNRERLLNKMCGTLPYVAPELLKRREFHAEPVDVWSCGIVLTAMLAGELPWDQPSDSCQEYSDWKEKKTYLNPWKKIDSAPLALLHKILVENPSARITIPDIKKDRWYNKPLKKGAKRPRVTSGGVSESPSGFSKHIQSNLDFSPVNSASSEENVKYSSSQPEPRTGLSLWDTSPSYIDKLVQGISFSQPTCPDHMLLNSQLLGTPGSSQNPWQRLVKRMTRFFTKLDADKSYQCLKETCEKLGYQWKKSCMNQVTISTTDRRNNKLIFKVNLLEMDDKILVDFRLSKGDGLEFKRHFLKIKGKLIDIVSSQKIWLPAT

| SMILES | inhibition at 0.0001 µM [1] [%] | IC50 [2] [nM] | cell growth suppression effect (in words) [2] | effect of suppressing CHK1 activity (in words) [1] |
| --- | --- | --- | --- | --- |
| COc1cncc(OCC2(F)CNC2)c1-c1cc(Nc2cnc(C#N)cn2)n[nH]1 [Example 5, 5-[(5-{3-[(3-fluoroazetidin-3-yl)methoxy]-5-methoxypyridin-4-yl}-1H-pyrazol-3-yl)amino]pyrazine-2-carbonitrile] | 15 | < 30 |  |  |
| COc1nccc(OCC2(CN)CC2)c1-c1cc(Nc2cnc(C#N)cn2)n[nH]1 [Example 38, 5-{[5-(4-{[1-(aminomethyl)cyclopropyl]methoxy}-2-methoxypyridin-3-yl)-1H-pyrazol-3-yl]amino}pyrazine-2-carbonitrile] | < 5 | < 30 | excellent cell growth suppression effect that is equivalent to that of prexasertib |  |
| COc1cncc(OCC[C@H](C)N)c1-c1cc(Nc2cnc(C#N)cn2)n[nH]1 [Example 10, 5-[(5-{3-[(3S)-3-aminobutoxy]-5-methoxypyridin-4-yl}-1H-pyrazol-3-yl)amino]pyrazine-2-carbonitrile] | 20 | 30 to 100 |  | more potent effect of suppressing CHK1 activity than prexasertib |
| COc1cncc(O[C@H](C)C2CNC2)c1-c1cc(Nc2cnc(C#N)cn2)n[nH]1 [Example 33, 5-[(5-{3-[(1R)-1-(azetidin-3-yl)ethoxy]-5-methoxypyridin-4-yl}-1H-pyrazol-3-yl)amino]pyrazine-2-carbonitrile] | < 5 | < 30 | excellent cell growth suppression effect that is equivalent to that of prexasertib |  |
| COc1cncc(OC[C@@H](C)CN)c1-c1cc(Nc2cnc(C#N)cn2)n[nH]1 [Example 27] | < 5 | < 30 |  |  |
| COc1cncc(OCC2CNC2)c1-c1cc(Nc2cnc(C#N)cn2)n[nH]1 [Example 18, 5-({5-[3-(azetidin-3-yl)methoxy-5-methoxypyridin-4-yl]-1H-pyrazol-3-yl}amino)pyrazine-2-carbonitrile] | < 5 | 30 to 100 |  | more potent effect of suppressing CHK1 activity than prexasertib |
| COc1cncc(OCC2(CN)CC2)c1-c1cc(Nc2cnc(C#N)cn2)n[nH]1 [Example 11, 5-{[5-(3-{[1-(aminomethyl)cyclopropyl]methoxy}-5-methoxypyridin-4-yl)-1H-pyrazol-3-yl]amino}pyrazine-2-carbonitrile] | 35 | < 30 | excellent cell growth suppression effect that is equivalent to that of prexasertib | more potent effect of suppressing CHK1 activity than prexasertib |
| COc1cncc(O[C@@H]2CC[C@@H](N)C2)c1-c1cc(Nc2cnc(C#N)cn2)n[nH]1 [Example 32, 5-{[5-(3-{[(1R,3R)-3-aminocyclopentyl]oxy}-5-methoxypyridin-4-yl)-1H-pyrazol-3-yl]amino}pyrazine-2-carbonitrile] |  | < 30 | excellent cell growth suppression effect that is equivalent to that of prexasertib |  |
| COc1ccnc(OCCCN)c1-c1cc(Nc2cnc(Cl)cn2)n[nH]1 [Example 15, N-{5-[2-(3-aminopropoxy)-4-methoxypyridin-3-yl]-1H-pyrazol-3-yl}-5-chloropyrazin-2-amine] | 29 | < 30 | excellent cell growth suppression effect that is equivalent to that of prexasertib | more potent effect of suppressing CHK1 activity than prexasertib |
| COc1cncc(OCCCN)c1-c1cc(Nc2cnc(C#N)cn2)n[nH]1 [Example 3, 5-({5-[3-(3-aminopropoxy)-5-methoxypyridin-4-yl]-1H-pyrazol-3-yl}amino)pyrazine-2-carbonitrile] | 28 | < 30 | excellent cell growth suppression effect that is equivalent to that of prexasertib | more potent effect of suppressing CHK1 activity than prexasertib |
| COc1cncc(OC[C@H]2CCNC2)c1-c1cc(Nc2cnc(C#N)cn2)n[nH]1 [Example 21, (S)-5-[(5-{3-methoxy-[5-(pyrrolidin-3-yl)methoxy]pyridin-4-yl}-1H-pyrazol-3-yl)amino]pyrazine-2-carbonitrile] | 15 | < 30 | excellent cell growth suppression effect that is equivalent to that of prexasertib | more potent effect of suppressing CHK1 activity than prexasertib |
| COc1cc(Cl)nc(OCCCN)c1-c1cc(Nc2cnc(C#N)cn2)n[nH]1 [Example 2, 5-({5-[2-(3-aminopropoxy)-6-chloro-4-methoxypyridin-3-yl]-1H-pyrazol-3-yl}amino)pyrazine-2-carbonitrile] | 31 | 30 to 100 |  | more potent effect of suppressing CHK1 activity than prexasertib |
| CN[C@@H]1CC[C@@H](Oc2cncc(OC)c2-c2cc(Nc3cnc(C#N)cn3)n[nH]2)C1 [Example 35, 5-{[5-(3-methoxy-5-{[(1R,3R)-3-(methylamino)cyclopentyl]oxy}pyridin-4-yl)-1H-pyrazol-3-yl]amino}pyrazine-2-carbonitrile] | < 5 | < 30 | excellent cell growth suppression effect that is equivalent to that of prexasertib |  |
| CNCCCOc1cncc(OC)c1-c1cc(Nc2cnc(C#N)cn2)n[nH]1 [Example 31, 5-[(5-{3-methoxy-5-[3-(methylamino)propoxy]pyridin-4-yl}-1H-pyrazol-3-yl)amino]pyrazine-2-carbonitrile] | < 5 | < 30 | excellent cell growth suppression effect that is equivalent to that of prexasertib |  |
| COc1ncnc(OCC2(CN)CC2)c1-c1cc(Nc2cnc(C#N)cn2)n[nH]1 [Example 23, 5-{[5-(4-{[1-(aminomethyl)cyclopropyl]methoxy}-6-methoxypyrimidin-yl)-1H-pyrazol-3-yl]amino}pyrazine-2-carbonitrile] | < 5 | < 30 |  |  |
| COc1nccc(OCC2(O)CNC2)c1-c1cc(Nc2cnc(C#N)cn2)n[nH]1 [Example 7, 5-[(5-{4-[(3-hydroxyazetidin-3-yl)methoxy]-2-methoxypyridin-3-yl}-1H-pyrazol-3-yl)amino]pyrazine-2-carbonitrile] | 29 | 30 to 100 |  | more potent effect of suppressing CHK1 activity than prexasertib |
| COc1cncc(O[C@H]2C[C@H](N)[C@H]3C[C@H]32)c1-c1cc(Nc2cnc(C#N)cn2)n[nH]1 [Example 36, 5-{[5-(3-{[(1R,2S,4S,5S)-4-aminobicyclo[3.1.0]hexan-2-yl]oxy}-5-methoxypyridin-4-yl)-1H-pyrazol-3-yl]amino}pyrazine-2-carbonitrile] | < 5 | < 30 | excellent cell growth suppression effect that is equivalent to that of prexasertib |  |
| N#Cc1cnc(Nc2cc(-c3c(OCF)cncc3OCCCN)[nH]n2)cn1 [Example 24, 5-({5-[3-(3-aminopropoxy)-5-(fluoromethoxy)pyridin-4-yl]-1H-pyrazol-3-yl}amino)pyrazine-2-carbonitrile] | 23 | 300 to 1000 |  | more potent effect of suppressing CHK1 activity than prexasertib |
| COc1cncc(OCC2(C(F)F)CNC2)c1-c1cc(Nc2cnc(C#N)cn2)n[nH]1 [Example 26, 5-{[5-(3-{[3-(difluoromethyl)azetidin-3-yl]methoxy}-5-methoxypyridin-4-yl)-1H-pyrazol-3-yl]amino}pyrazine-2-carbo nitrile] | 42 | < 30 | excellent cell growth suppression effect that is equivalent to that of prexasertib | more potent effect of suppressing CHK1 activity than prexasertib |
| COc1cncc(OC[C@@H](O)CN)c1-c1cc(Nc2cnc(C#N)cn2)n[nH]1 [Example 14, 5-[(5-{3-[(2S)-3-amino-2-hydroxypropoxy]-5-methoxypyridin-4-yl}-1H-pyrazol-3-yl)amino]pyrazine-2-carbonitrile] | 30 | 300 to 1000 |  | more potent effect of suppressing CHK1 activity than prexasertib |
| COc1cncc(O[C@@H]2CCC[C@H](N)C2)c1-c1cc(Nc2cnc(C#N)cn2)n[nH]1 [Example 19, 5-{[5-(3-{[(1R,3S)-3-aminocyclohexyl]oxy}-5-methoxypyridin-4-yl)-1H-pyrazol-3-yl]amino}pyrazine-2-carbonitrile] | 20 | < 30 | excellent cell growth suppression effect that is equivalent to that of prexasertib | more potent effect of suppressing CHK1 activity than prexasertib |
